Results: patent US20070110734A9, “Methods and compositions using cellular asialodeterminants and glycoconjugates for targeting cells to tissues and organs” (Department of Veterans Affairs, Rehabilitation R&D Service, priority 2002, published 2007)

Columns and labels:
[1] = tested on: HEPG2 (ASGPR+); assay: Adherence of NK/LAK activity to HEPG2 monolayers at 23° C; format: cell-based, human
Description: (§1) This experiment is the same as above, except that the adherence to monolayers was performed at 23° C. and not 4° C., for 2 hours. Two monolayers were used: HEPG2, an ASGPR+ cell line, and CAKI-2 (human renal cell carcinoma), an ASGPR− cell line. The effector cell populations that were used were: an untreated 3-day old LAK preparation (LAK) and the same population treated with Vibrio cholera neuraminidase (LAK/NS) (30 mU/1×10^7 cells/200 μl). The neuraminidase-treated population was the asialopositive lymphocyte control. All cell populations regardless of treatment were greater than 90% viable at the time of assay. Each type of effector population was incubated with media alone, 200 μg/ml ASF or F, as controls. All effectors were assayed on RAJI (LAK-sensitive target; NK-insensitive target) or K562 (NK/LAK-sensitive target); the E:T ratios and the graphic presentation are the same above.
(§2) Five-day LAK preparations (20 U/ml; 1 Dupont unit=44.5 BRMP units) grown in AIM-V (Gibco) were treated (according to the protocols in B. 1.2.3 & 1.2.4) with 3 OmU Vibric Cholera neuramindase, 0.48 mU 2,3-or 10 mu 2,6-silalyltransferase per 107 cells. Some of the effectors were incubated in media, 10% PBS in RPMJ 1640 at 23° C. for 2 hours. 2×107 effectors from the untreated LALK, neuramithdase-treated LAK, LAK treated with 2,3 or 2,6 were suspended in 15 ml media and placed onto either HEPG2 (ASGPR+) or CAKI-2 (ASGPR−) monolayers at 23° C. for 2 hours. The flasks were rocked every 15 minutes. The nonadherent cells from these monolayers were decanted and assayed against K562 and RAJI, in addition to the unadhered controls. The E:T ratios used were 40, 20, 10, and 5 to 1.

[2] = tested on: CAKI-2 (ASGPR−); assay: Adherence of NK/LAK activity to CAKI-2 monolayers at 23° C; format: cell-based, human
Description: as §1, §2

[3] = tested on: K562 (NK/LAK-sensitive target); assay: Cytotoxic capacity of IL-2 activated NK effectors in 51Cr-release assay on K562; format: cell-based, human
Description: as §1, §2

[4] = tested on: RAJI (LAK-sensitive target; NK-insensitive target); assay: Cytotoxic capacity of LAK effectors in 51Cr-release assay on RAJI; format: cell-based, human; settings: for LAK activity (killing of RAJI) after enzyme treatment of effector cell surface: enzyme-treated LAK cells
Description: Control cells (no IL-2 treatment) or LAK cells (IL-2-treated human peripheral blood lymphocytes cultured 10U IL-2/ml for 3 days) were adhered to a monolayer of HEP G2 cells for 2 hours at 4° C. The monolayer was pretreated either with asialofetuin (ASF, 200 μg/ml) in media or with fetuin (F, control, 200 μg/ml)) in media. After the Control or LAK cells had been incubated on the monolayer, these cells were then decanted, washed, and tested for cytotoxic capacity in a ^51Cr-release assay against the NK-resistant target, Raji.
as §1, §2

[5] = tested on: Caki-2 Targets; assay: 51Cr-release assay of LAK effectors against CAKI-2 with agent added; format: cell-based, human; settings: for % 51Chromium Release from Caki-2 Targets: agent 250 μg per well, 5-day LAK, 4-hour incubation
Description: A working hypothesis is that LAK/NK cells bind to HEPG2 via at least two receptors or recognition structures: 1) the ASGPR, which binds an asialodeterminant on the LAK/NK population and 2) the “LAK” or “NK” recognition structure for a target epitope. The first should be inhibitable by ASF; the second should not be. Binding to CAKI-2 (ASGPR−) should not be inhibited by ASF and is due to a LAK or NK recognition structure binding to the target epitope. This can be further supported by data derived from experiments (see below) in which 250 μg/well of ASF or F were added to the ^51Cr-release assay of LAK effectors against the labeled target CAKI-2.
(% SPECIFIC RELEASE was determined from quadruplicates whose raw counts per minute differed by less than 10 percent; the assay was a standard 4-hour incubation.)

[6] = tested on: human CD34+ (hCD34+) peripheral blood stem cells; assay: In vivo trafficking of 111In-labeled human CD34+ stem cells (HSC) after glycoprotein infusion, gamma camera imaging; set-up: species or system NOD-SCID mice; settings: for organ localization of infused hematopoietic (CD34+) stem cells, in words: cells preceded by infusion of the protein, jugular vein, immunodeficient mice
Description: Intravenous cannulas were placed into the external jugular vein of NOD-SCID mice under anesthesia (Institutional Animal Care and Use Committee protocol #AM87046-07) to enable the efficient delivery of ^111In-labeled stem cells i.v. Tylenol elixir was administered by mouth after recovery from anesthesia. Briefly radiolabeled CD34+ cells were taken up in 100-250 ul of 5% human plasma albumin in saline and injected into the cannula and then flushed with 50 ul of the albumin-saline. The mice were imaged by nuclear medicine.
Mice: NOD-SCID, female mice (Nonobese diabetic/LtSz-scid/scid) were obtained from the Jackson Laboratory, Bar Harbor, Me. at 1-2 months of age. These animals were maintained in microisolator cages in a special isolator room. The air was HEPA filtered, and the animals were changed in a laminar flow hood within the facility. All food, bedding, and water was sterilized. […] See, e.g. Hogan, et al., Biology of Blood & Marrow Transplantation 3:236-246 (1997); Noort, et al., Bone Marrow Transplantation 22 Suppl 1:S58-60 (1998).
(§3) ^111Indium Oxine Labeling Procedure: ^111In-oxine labeling of adult human CD34+ or mesenchymal stem cells (hMSCs) was performed using a modification of the Amersham Healthcare Procedure for labeling autologous leukocytes.
(§4) Imaging procedures: Nuclear Medicine. NOD-SCID mice were anesthetized using rodent anesthesia cocktail. Once anesthetized, the mice were placed on a foam hemi-cylindrical mouse positioning device (MPD) and covered with a tube sock. The MPD allows better visual separation of the lungs and liver as compared to placing the mouse on a flat surface. The foam on which the mouse was placed, and the tube sock covering maintained a comfortable temperature permitting longer imaging without additional anesthesia. The MPD was placed on a narrow table between the dual heads of a Siemens E.Cam Gamma Camera and imaged statically or dynamically in 2-D or SPECT. ^57Co-Spot Marker is used to mark anatomic positions (nose, tail, cannula, etc.). The data was analyzed using a Siemens ICON system for regions of interest or percent of injected dose (e.g. liver, spleen, heart).
(§5) Gamma camera imaging using a Siemens E. Cam dual head gamma camera monitored the in vivo trafficking patterns of all human stem cells described in the following examples. Mice were placed on a Mouse Positioning Device (MPD) and placed between the detectors on the imaging platform.
5.75×10^6 111In-labeled human CD34+ (hCD34+) peripheral blood stem cells were administered intravenously (i.v.) via an external jugular vein cannula to 2 month old, NOD-SCID, female mice (Non-obese diabetic/LtSz-scid/scid) obtained from the Jackson Laboratory, Bar Harbor, Me. The radiolabeled CD34+ stem cells were administered after pretreatment of the mouse with 3.3 mg of asialoorosomucoid (ASO) i.v. The in vivo trafficking patterns were followed by gamma camera imaging using a Siemens E.Cam dual head gamma camera from immediately after injection up to 36 hr postinfusion. Human CD34+ were isolated from apheresis stem cell collection products derived from deceased cancer patients. They were purified to 95-99% purity using antibody conjugated to CD34 conjugated to magnetics beads (MACS) separation columns; Miltenyi Biotec, Auburn, Calif. and cryopreserved.
5.75×10^6 111In-labeled human CD34+ (hCD34+) peripheral blood stem cells were administered intravenously (i.v.) via an external jugular vein cannula to 2 month old, NOD-SCID, female mice (Non-obese diabetic/LtSz-scid/scid) obtained from the Jackson Laboratory, Bar Harbor, Me. The radiolabeled CD34+ stem cells were administered after pretreatment of the mouse with 5.5 mg of orosomucoid (O) i.v.
The preparation and procedures set forth in Example I were repeated. […]

[7] = tested on: human mesenchymal stem cells (MSC); assay: In vivo trafficking of 111In-labeled human mesenchymal stem cells (MSC) after glycoprotein infusion, gamma camera imaging; set-up: species or system NOD-SCID mice; settings: for % Infused Cells in Liver/Spleen: 0.56×10^6 MSC preceded by 4.3 mg ASO followed by 5.5 mg orosomucoid i.v.
Description: Human mesenchymal stem cells (hMSCs; PT-2501) obtained through a FDA monitored paid bone marrow donor program were purchased from Poietics Technologies, BioWhittaker (Walkerville, Md.). The cells were thawed according to manufacturer recommendations, resuspended, and radiolabeled in Mesenchymal Stem Cell Basal Medium (MSCBM).
as §3, §4, §5
MSC were obtained from BioWhittaker, (Poietics Division, cryopreserved PT-2501 >750,000 cells per ampoule) and labeled with ^111In as in previous examples, except that the MSC were labeled, washed, and injected in Basal Stem Cell Medium (Poietics) containing 5% human serum albumin (HSA). 0.56×10^6 111In labeled, human mesenchymal stem cells (MSC) were administered via an implanted Da Vinci Microport Vascular System cannula in the external jugular vein of a two-month old, female NOD-SCID mouse in 0.21 ml of basal stem cell medium containing 5% human serum albumin (HSA). Immediately prior to administration of MSC, 11.0 mg of orosomucoid was administered i.v. in 0.2 ml.
0.56×10^6 “In-labeled, MSC were administered i.v. in 0.21 ml of basal stem cell medium containing 5% human serum albumin (HSA). Prior to administration of MSC, 0.1 ml containing 4.3 mg of ASO, followed by 0.1 ml containing 5.5 mg orosomucoid were administered i.v. The ASO, orosomucoid and MSC were administered via an implanted Da Vinci Microport Vascular system cannula in the external jugular vein of a two-month old, female NOD-SCID mouse.

Neuraminidase: Vibrio cholera neuraminidase used to treat LAK cells and generate cell surface asialodeterminants
adherence of LAK activity to HEPG2 (assayed on RAJI) after cell surface modification ([1]; 23° C for 2 hours): did not
adherence to CAKI-2 of IL-2 activated NK activity (assayed on K562) after cell surface modification ([2]; 5-day LAK, 23° C for 2 hours): promotes adherence
IL-2 activated NK (killing K562 targets) after enzyme treatment of effector cell surface ([3]; enzyme-treated LAK cells): does not enhance
LAK activity (killing of RAJI) after enzyme treatment of effector cell surface [4]: enhances
LAK activity (killing of RAJI) after enzyme treatment of effector cell surface ([4]; listed as neuraminidase): significantly enhanced

fetuin [reference compound]
inhibition of adherence to HEPG2 of LAK activity (assayed on RAJI) ([1]; 23° C, 200 μg/ml): could not be inhibited
inhibition of adherence of LAK activity of the neuraminidase-treated population to HEPG2 ([1]; 23° C, 200 μg/ml, assayed on RAJI): not
inhibition of adherence to HEPG2 of IL-2 activated NK (assayed on K562) ([1]; 23° C, with or without neuraminidase treatment, 200 μg/ml): not
inhibition of adherence to CAKI-2 of IL-2 activated NK or LAK activity ([2]; 23° C, 200 μg/ml): could not be inhibited
ability of effectors (LAK or LAK/NS) to kill K562 after preincubation with the protein ([3]; 200 μg/ml, 23° C): does not affect
activity of LAK or Control preparations incubated with the protein alone versus untreated LAK ([4]; 200 μg/ml for 2 h at 40C, no monolayer): identical activity
ability of effectors (LAK or LAK/NS) to kill RAJI after preincubation with the protein ([4]; 200 μg/ml, 23° C): does not affect
% 51Chromium Release from Caki-2 Targets ([5]; E:T 5:1): 16%
% 51Chromium Release from Caki-2 Targets ([5]; E:T 10:1): 27%
% 51Chromium Release from Caki-2 Targets ([5]; E:T 20:1): 42%
% 51Chromium Release from Caki-2 Targets ([5]; E:T 40:1): 58%
blocking of LAK killing of the tumor target CAKI-2, in words ([5]; preincubation of targets and addition to the assay at 250 μg per well): does not block

asialoorosomucoid [ASO]
migration of CD34+ cells to the liver and spleen, in words ([6]; 5.75×10^6 HSC after 3.3 mg ASO i.v., early postinfusion images): did not migrate to the liver and spleen early
organ localization of infused hematopoietic (CD34+) stem cells, in words [6]: migrated immediately to the heart
organ localization of infused hematopoietic (CD34+) stem cells, in words ([6]; listed as asialoorosomucoid): predominantly localize in the heart
% Infused Cells in Liver/Spleen ([7]; 0 hr): 63 ± 5% at 0 hr
% Infused Cells in Liver/Spleen ([7]; 1 hr): 57 ± 7% at 1 hr
organ localization of infused mesenchymal stem cells, in words ([7]; cells preceded by infusion of the protein, jugular vein, immunodeficient mice): localize in the liver
